These results are taken from ChEMBL document CHEMBL4043296 (J Med Chem, 2018).

The target of one data set is D(2) dopamine receptor (Homo sapiens, UniProt P14416). As to the kind of experiment: Displacement of [3H]N-methylspiperone from human dopamine D2 receptor expressed in HEK293 cell membranes after 1 hr by scintillation counting method. In general terms: Displacement assays read how much labelled ligand stays bound in the presence of the test substance.
For another data set, the species on record is Homo sapiens. As to the kind of experiment: Selectivity ratio of Ki for human dopamine D2 receptor to Ki for human dopamine D4 receptor.
The target of data set [1] is T1, Muscarinic acetylcholine receptor M1 (Homo sapiens, UniProt P11229).
T1 sequence (P11229 whole entry): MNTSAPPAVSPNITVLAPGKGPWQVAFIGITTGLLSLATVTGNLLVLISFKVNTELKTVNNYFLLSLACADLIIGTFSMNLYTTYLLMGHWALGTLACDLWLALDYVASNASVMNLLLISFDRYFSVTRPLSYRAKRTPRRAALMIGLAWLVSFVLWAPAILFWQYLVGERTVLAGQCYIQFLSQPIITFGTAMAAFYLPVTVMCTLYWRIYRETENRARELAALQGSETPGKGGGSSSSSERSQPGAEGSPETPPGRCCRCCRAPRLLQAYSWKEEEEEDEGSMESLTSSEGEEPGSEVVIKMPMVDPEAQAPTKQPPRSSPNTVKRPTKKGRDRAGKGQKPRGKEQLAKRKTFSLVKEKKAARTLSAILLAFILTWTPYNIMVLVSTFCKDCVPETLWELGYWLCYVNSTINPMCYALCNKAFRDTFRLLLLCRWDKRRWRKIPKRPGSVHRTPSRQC
In words: Displacement of [3H]NMS from human muscarinic M1 receptor expressed in CHO cell membranes after 2 hrs by liquid scintillation counting method.

Data set [2] addresses Muscarinic acetylcholine receptor M3 (Homo sapiens, UniProt P20309). In words: Displacement of [3H]NMS from human muscarinic M3 receptor expressed in CHO cell membranes after 2 hrs by liquid scintillation counting method.
Data set [3] deals with T2, Alpha-1D adrenergic receptor (Homo sapiens, UniProt P25100).
T2 sequence (P25100 whole entry): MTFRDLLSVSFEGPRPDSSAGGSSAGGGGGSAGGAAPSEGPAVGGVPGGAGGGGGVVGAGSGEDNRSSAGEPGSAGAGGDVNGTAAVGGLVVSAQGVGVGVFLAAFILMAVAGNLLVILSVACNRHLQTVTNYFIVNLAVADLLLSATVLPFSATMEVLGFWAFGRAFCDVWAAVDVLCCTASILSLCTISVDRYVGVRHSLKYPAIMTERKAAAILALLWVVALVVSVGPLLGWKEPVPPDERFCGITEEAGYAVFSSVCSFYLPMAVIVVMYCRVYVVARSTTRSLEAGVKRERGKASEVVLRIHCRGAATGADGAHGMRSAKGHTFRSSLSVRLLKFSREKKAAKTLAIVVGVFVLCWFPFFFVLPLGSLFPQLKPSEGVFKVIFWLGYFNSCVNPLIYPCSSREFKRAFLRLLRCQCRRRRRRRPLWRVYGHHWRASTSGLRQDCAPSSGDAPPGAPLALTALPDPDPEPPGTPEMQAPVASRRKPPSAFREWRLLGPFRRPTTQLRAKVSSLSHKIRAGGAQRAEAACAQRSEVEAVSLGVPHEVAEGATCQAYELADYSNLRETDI
In words: Displacement of [3H]prazosin from human recombinant alpha-1D adrenergic receptor expressed in CHO cell membranes after 30 mins by liquid scintillation counting method.

Data set [4] addresses Beta-2 adrenergic receptor (Homo sapiens, UniProt P07550). As to the kind of experiment: Displacement of [3H]CGP12177 from human recombinant beta2 adrenergic receptor expressed in HEK293 cell membranes after 90 mins by beta counting method.
Data set [5] concerns the target Sodium-dependent dopamine transporter (Rattus norvegicus, UniProt P23977). In words: Displacement of [3H]WIN 35,428 from DAT in Sprague-Dawley rat striatum after 120 mins by scintillation counting method.
Another data set has as its target T3, D(4) dopamine receptor (Homo sapiens, UniProt P21917).
T3 sequence (P21917 whole entry): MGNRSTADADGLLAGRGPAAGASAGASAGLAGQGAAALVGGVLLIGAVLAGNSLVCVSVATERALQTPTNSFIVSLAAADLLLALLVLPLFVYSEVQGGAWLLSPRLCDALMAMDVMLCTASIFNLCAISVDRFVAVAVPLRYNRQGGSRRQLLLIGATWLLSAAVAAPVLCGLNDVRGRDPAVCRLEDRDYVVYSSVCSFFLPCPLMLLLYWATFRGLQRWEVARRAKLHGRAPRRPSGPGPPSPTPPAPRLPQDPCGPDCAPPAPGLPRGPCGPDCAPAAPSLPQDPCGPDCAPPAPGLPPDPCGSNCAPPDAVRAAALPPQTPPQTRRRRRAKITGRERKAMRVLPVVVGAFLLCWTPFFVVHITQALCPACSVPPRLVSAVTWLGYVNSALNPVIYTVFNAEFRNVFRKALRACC
In words: Antagonist activity at human SP/Myc epitope-tagged dopamine D4 receptor expressed in HEK293T cells assessed as inhibition of dopamine-induced RLuc8-fused Galphai1 activation preincubated for 15 mins followed by dopamine induction measured after 2 mins by BRET assay. Format: cell-based, HEK-293T. On the technique in general: BRET reads energy transfer from a luciferase to a nearby fluorophore.

In data set [6] the target is T1, Muscarinic acetylcholine receptor M1. In words: Agonist activity at human SP/Myc epitope-tagged muscarinic M1 receptor expressed in HEK293T cells assessed as RLuc8-fused Galphaq activation after 2 mins by BRET assay. Format: cell-based, HEK-293T.
For data set [7], the target named is T4, Muscarinic acetylcholine receptor M4 (Homo sapiens, UniProt P08173).
T4 sequence (P08173 whole entry): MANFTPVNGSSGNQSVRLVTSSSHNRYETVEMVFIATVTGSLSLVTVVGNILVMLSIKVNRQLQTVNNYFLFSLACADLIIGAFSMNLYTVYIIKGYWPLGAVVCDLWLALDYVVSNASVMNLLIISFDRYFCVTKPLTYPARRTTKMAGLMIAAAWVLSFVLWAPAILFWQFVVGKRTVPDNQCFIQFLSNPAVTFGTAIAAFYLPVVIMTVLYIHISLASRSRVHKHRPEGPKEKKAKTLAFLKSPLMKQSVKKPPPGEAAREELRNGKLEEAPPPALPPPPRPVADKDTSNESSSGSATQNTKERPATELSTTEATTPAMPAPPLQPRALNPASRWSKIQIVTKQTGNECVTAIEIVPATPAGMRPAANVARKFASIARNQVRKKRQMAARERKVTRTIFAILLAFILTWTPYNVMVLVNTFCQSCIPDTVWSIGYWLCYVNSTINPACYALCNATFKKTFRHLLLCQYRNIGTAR
In words: Agonist activity at human SP/Myc epitope-tagged muscarinic M4 receptor expressed in HEK293T cells assessed as RLuc8-fused Galphaq activation after 2 mins by BRET assay. Format: cell-based, HEK-293T.

In data set [8] the target is T5, Muscarinic acetylcholine receptor M4 (Homo sapiens) (UniProt P08173).
T5 sequence (whole entry): T4 sequence (P08173 whole entry)
As to the kind of experiment: (§1) Antagonist activity at human SP/Myc epitope-tagged muscarinic M4 receptor expressed in HEK293T cells assessed as inhibition of carbachol-induced mVenus-fused beta-arrestin2 recruitment preincubated for 15 mins followed by carbachol induction measured after 2 mins by BRET assay. Format: cell-based. The conditions noted are these: HEK-293T. On the technique in general: Recruitment of arrestin is a read-out of receptor activation apart from second messengers.

Data set [9] concerns the target T4, Muscarinic acetylcholine receptor M4. The description is as §1. Format: cell-based, HEK-293T.
The nature of data set [10]: Kinetic solubility of the compound at pH 7.4 after 24 hrs by UPLC/UV/TOF-MS method. The conditions noted are these: buffer, read-out: Kinetic_solubility. Format: physicochemical.
Data set [11] can be described thus: Intrinsic clearance in mouse liver microsomes assessed per mg of protein at 0.5 uM preincubated for 30 mins followed by NADPH addition measured after 30 mins by HPLC-MS/MS method. Format: ADME, microsome. The conditions noted are these: read-out: CLH.

Values after ≈ are worked out from the molar mass of the structure shown.

Sequence of Sodium-dependent dopamine transporter (P23977 whole entry): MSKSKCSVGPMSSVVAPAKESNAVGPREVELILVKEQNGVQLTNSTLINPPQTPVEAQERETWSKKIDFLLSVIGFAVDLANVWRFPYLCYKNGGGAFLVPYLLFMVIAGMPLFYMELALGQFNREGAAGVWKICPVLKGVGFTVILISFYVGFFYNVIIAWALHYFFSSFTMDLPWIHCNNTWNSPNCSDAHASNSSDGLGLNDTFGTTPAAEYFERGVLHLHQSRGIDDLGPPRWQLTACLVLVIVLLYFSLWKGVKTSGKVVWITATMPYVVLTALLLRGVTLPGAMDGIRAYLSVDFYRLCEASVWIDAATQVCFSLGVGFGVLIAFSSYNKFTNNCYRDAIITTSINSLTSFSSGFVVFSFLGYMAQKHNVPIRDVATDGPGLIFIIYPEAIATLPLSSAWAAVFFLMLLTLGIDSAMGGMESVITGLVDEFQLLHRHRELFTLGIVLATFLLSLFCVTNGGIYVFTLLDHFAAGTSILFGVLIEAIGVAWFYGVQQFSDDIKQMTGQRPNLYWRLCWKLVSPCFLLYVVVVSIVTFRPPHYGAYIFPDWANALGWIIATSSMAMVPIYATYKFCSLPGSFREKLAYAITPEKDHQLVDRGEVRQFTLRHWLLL
Sequence of Beta-2 adrenergic receptor (P07550 whole entry): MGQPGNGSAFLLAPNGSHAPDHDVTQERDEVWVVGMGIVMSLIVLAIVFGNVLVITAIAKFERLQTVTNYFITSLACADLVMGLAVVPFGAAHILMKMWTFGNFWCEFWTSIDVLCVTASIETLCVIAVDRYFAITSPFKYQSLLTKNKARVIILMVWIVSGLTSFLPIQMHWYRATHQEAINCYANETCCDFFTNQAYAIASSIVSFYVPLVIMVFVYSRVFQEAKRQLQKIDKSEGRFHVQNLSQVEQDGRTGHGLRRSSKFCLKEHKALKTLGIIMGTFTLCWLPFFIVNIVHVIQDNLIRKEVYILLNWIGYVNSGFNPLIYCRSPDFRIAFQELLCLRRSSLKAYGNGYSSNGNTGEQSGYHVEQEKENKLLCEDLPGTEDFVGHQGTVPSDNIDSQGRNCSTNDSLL
Sequence of D(2) dopamine receptor (P14416 whole entry): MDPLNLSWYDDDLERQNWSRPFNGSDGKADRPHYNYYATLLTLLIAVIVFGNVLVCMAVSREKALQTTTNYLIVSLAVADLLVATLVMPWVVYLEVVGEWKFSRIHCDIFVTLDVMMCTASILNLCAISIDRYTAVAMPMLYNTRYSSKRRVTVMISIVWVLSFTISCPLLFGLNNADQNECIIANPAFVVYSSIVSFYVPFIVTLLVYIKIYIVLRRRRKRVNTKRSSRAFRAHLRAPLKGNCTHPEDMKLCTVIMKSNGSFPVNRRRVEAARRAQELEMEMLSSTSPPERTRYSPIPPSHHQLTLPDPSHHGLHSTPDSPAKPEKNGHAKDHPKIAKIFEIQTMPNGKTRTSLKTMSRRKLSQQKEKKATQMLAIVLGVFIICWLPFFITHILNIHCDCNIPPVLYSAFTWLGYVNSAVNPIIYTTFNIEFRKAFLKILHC
Sequence of Muscarinic acetylcholine receptor M3 (P20309 whole entry): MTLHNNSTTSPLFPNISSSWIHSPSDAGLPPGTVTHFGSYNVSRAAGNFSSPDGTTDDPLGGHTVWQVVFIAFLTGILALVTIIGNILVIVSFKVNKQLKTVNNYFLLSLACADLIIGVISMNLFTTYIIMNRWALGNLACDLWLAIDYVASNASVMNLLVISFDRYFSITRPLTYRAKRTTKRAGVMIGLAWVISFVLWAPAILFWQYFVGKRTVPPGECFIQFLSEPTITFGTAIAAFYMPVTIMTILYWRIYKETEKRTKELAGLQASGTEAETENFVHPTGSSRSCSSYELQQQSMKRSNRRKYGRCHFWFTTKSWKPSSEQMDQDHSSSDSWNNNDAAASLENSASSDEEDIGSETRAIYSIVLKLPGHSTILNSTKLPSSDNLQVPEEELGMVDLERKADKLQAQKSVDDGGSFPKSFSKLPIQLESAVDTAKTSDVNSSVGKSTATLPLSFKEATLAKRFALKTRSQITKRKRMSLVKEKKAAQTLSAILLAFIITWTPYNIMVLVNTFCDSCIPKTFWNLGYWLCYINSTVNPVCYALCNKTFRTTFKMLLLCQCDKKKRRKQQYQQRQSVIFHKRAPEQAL

Take `O=C1CCc2ccccc2N1CCCN1CCN(c2ccccc2)CC1`: the Ki at D(2) dopamine receptor was 1100 nM; in [1], 4270 nM; in data set [2], 17800 nM; in [3], 91.2 nM; in data set [4] it was 35500 nM; in data set [5], 8710 nM. Further, the Ratio Ki in the data set filed under Homo sapiens was found to be 380. In addition, the IC50 is 9.77 nM on D(4) dopamine receptor and 12000 nM in data set [9]. The concentration for a half-maximal effect (EC50) is 646 nM in [6] and 589 nM in [7]. Besides, the Imax in data set [8] was 74%. Further, the solubility kinetic at 24 h in data set [10] came to 520 µM (≈ 182 µg/mL). The microsomal CLint at 0.5 µM in data set [11] was 159 µL/min/mg.
Consider `O=C1CCc2ccccc2N1CCCN1CCC(Cc2ccccc2)CC1`, for which the inhibition constant (Ki) was 912 nM on D(2) dopamine receptor; 363 nM in data set [1]; 3020 nM in [2]; 302 nM in data set [3]; 9550 nM in data set [4]; 447 nM in data set [5]. Besides, the Ratio Ki in the data set filed under Homo sapiens is 724. Further, the values for the IC50 (on D(4) dopamine receptor; in [9]) were 170 nM and 1230 nM, respectively. Moreover, the EC50 was 186 nM in [6] and 148 nM in data set [7]. Also, the Imax in data set [8] stood at 72%. The solubility kinetic at 24 h in data set [10] was 477 µM (≈ 173 µg/mL). The microsomal CLint at 0.5 µM in [11] stood at 396 µL/min/mg.

The term Ki denotes a dissociation constant, usually derived from enzyme kinetics or from competition with a known ligand. The term IC50 denotes the concentration that inhibits the measured activity by half. In general, EC50 refers to the concentration needed to bring the measured effect to its halfway point.
